# Data from patent US20060293291A1, “2-Propylidene-19-nor-vitamin d compounds” (priority 2003, published 2006).
# What was measured:
# [1] = test system: bone calcium mobilization; experiment: Bone calcium mobilization (serum calcium); assay type: in vivo, Sprague-Dawley rats; details: rats, four consecutive ip doses, FIG. 6
# Procedure: (§1) FIGS. 5 and 6—Intestinal Calcium Transport and Bone Calcium Mobilization
# (§2) Male, weanling Sprague-Dawley rats were placed on Diet 11 (0.47% Ca) diet+AEK for one week followed by Diet 11 (0.02% Ca)+AEK for 3 weeks. The rats were then switched to a diet containing 0.47% Ca for one week followed by two weeks on a diet containing 0.02% Ca. Dose administration began during the last week on 0.02% calcium diet. Four consecutive ip doses-were given approximately 24 hours apart. Twenty-four hours after the last dose, blood was collected from the severed neck and the concentration of serum calcium determined as a measure of bone calcium mobilization. The first 10 cm of the intestine was also collected for intestinal calcium transport analysis using the everted gut sac method.
# [2] = test system: human leukemia cells (HL-60 cells); experiment: HL-60 cell differentiation (NBT reduction); assay type: cell-based; details: NBT assay; for potency in promoting the differentiation of leukemia cells: HL-60 cells to monocytes, FIG. 3; for percent of HL-60 cells induced to differentiate: concentration 1×10^−7 M
# Procedure: FIG. 3—EL-60 Cell Differentiation
# The differentiation of HL-60 promyelocytic into monocytes was determined as described by Ostrem et al (J. Biol. Chem. 262, 14164-14171, 1987).
# Differentiation activity was assessed by a standard differentiation assay, abbreviated as NBT reduction (nitroblue tetrazolium reduction). The assay was conducted according to known procedures, as given, for example, by DeLuca et al U.S. Pat. No. 4,717,721 and Ostrem et al, J. Biol. Chem. 262, 14164, 1987. For the assay, the differentiation activity of the test compounds is expressed in terms of the percent of HL-60 cells having differentiated to normal cells in response to a given concentration of test compound.
# [3] = test system: 24-hydroxylase (24OHase) gene promoter; experiment: Transcription activation, 24-hydroxylase promoter luciferase reporter in ROS 17/2.8 (bone) cells; assay type: cell-based; details: ROS 17/2.8 cells, luciferase 16 hours after dosing, FIG. 4
# Procedure: FIG. 4—Transcription Activation
# Transcriptional activity was measured in ROS 17/2.8 (bone) cells that were stably transfected with a 24-hydroxylase (24OHase) gene promoter upstream of a luciferase reporter gene (Arbour et al., 1998). Cells were given a range of doses. Sixteen hours after dosing the cells were harvested and luciferase activities were measured using a luminometer.
# “RLU” in FIG. 4 refers to relative luciferase units.
# [4] = target: T1, recombinantly produced rat receptor (1α,25-dihydroxyvitamin D receptor) (Rattus norvegicus, UniProt P13053); experiment: Competitive VDR binding; details: FIGS. 1 and 2
# T1 construct: made in house
# T1 sequence (P13053 1-423): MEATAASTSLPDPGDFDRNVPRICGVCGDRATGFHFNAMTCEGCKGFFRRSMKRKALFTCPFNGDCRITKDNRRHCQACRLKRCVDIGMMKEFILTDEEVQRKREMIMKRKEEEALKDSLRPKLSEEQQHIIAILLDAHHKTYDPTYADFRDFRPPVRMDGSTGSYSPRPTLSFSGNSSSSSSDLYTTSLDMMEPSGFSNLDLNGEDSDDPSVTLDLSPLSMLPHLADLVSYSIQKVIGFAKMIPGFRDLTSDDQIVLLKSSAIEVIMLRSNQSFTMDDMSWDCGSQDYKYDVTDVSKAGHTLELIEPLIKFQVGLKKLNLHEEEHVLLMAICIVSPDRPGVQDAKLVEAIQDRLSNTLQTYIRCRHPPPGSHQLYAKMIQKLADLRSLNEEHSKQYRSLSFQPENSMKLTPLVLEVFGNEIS
# Procedure: FIGS. 1 and 2—Competitive VDR Binding
# Competitive binding of the analogs to the porcine intestinal receptor was carried out by the method described by Dame et al (Biochemistry 25, 4523-4534, 1986), except the recombinantly produced rat receptor was used as the receptor (see Vanhooke et al., Biochemistry, in press, 2004).
# [5] = test system: intestinal calcium transport; experiment: Intestinal calcium transport, everted gut sac method; assay type: in vivo, Sprague-Dawley rats; details: rats, four consecutive ip doses, FIG. 5
# Procedure: as §1, §2
Compound,ability to mobilize calcium from bone [1],bone calcium mobilization compared with 2MD [1],potency in promoting the differentiation of leukemia cells [2],percent of HL-60 cells induced to differentiate [2],transcriptional activity in bone cells [3],"activity in binding to the 1α,25-hydroxyvitamin D3 rat receptor [4]",intestinal calcium transport activity [5],intestinal calcium transport activity compared with 2MD [5]
"2-[(3′-methoxymethoxy)propylidene]-19-nor-1α,25-dihydroxyvitamin D3 [F-Wit]",significant ability to mobilize calcium from bone,less active in this regard than 2MD,"as potent as 1α,25-dihydroxyvitamin D3 and 2MD",the same degree of differentiation,significant transcriptional activity,very active,relatively high intestinal calcium transport activity,more active than 2M
"C=C1/C(=C\C=C2/CCC[C@]3(C)[C@@H]([C@H](C)CCCC(C)(C)O)CC[C@@H]23)C[C@@H](O)C[C@@H]1O [1α,25-dihydroxyvitamin D3, reference compound]",,,,~90%,,,,
"(20R)-1α,25-dihydroxy-2-[3′-hydroxypropylidene]-19-norvitamin D3 [1AGR]",significant ability to mobilize calcium from bone,less active in this regard than 2MD,"as potent as 1α,25-dihydroxyvitamin D3 and 2MD",the same degree of differentiation,significant transcriptional activity,very active,relatively high intestinal calcium transport activity,more active than 2M
"(20S)-1α,25-dihydroxy-2-[3′-hydroxypropylidene]-19-norvitamin D3 [1AGS]",significant ability to mobilize calcium from bone,less active in this regard than 2MD,"as potent as 1α,25-dihydroxyvitamin D3 and 2MD",the same degree of differentiation,significant transcriptional activity,very active,relatively high intestinal calcium transport activity,more active than 2M
